Data reported in US9352010B2, “Treatment of HIV-1 infection and AIDS” (The J. David Gladstone Institutes, priority 2011, dated 2016).
“Also recorded” adds a separate entry of the source. Like-named read-outs stand apart in the source and are kept apart here.

What was measured:
Assay type in all cases: cell-based, human
CFSE-labeled CD4 T-cells = conditions: for indirect killing (loss) of resting CFSE-labeled CD4 T-cells: NL4-3-infected effector cells
IL-1β = assay: Maturation and secretion of IL-1β in abortively infected tonsillar CD4 T-cells (Western blot); conditions: AZT 5 μM, AMD3100 250 nM, efavirenz 100 nM
Procedure: For assessing the processing and secretion of IL-1β in abortively infected CD4 T-cells, CD4 T-cells were isolated from HLACs as described above, and were spinoculated with or without NL4-3 with the indicated drugs as describes above in vi (Spinoculation) and in FIG. 7B. For intracellular protein analysis, cells were lysed 72 hours after spinoculation in RIPA buffer (150 mM NaCl, 1% Nonidet P-40 (vol/vol), 0.5% […] (vol/vol), 0.1% SDS (vol/vol), 50 mM Tris-HCl (pH 8), 1 mM DTT), and EDTA-free Protease Inhibitor (Roche Applied Science, Cat. #04 693 132 001). For analysis of secreted IL-1β, supernatants (200 μl/1 million cells) from the rest of the CD4 T-cells were collected five days after spinoculation and analyzed using Western blot. For Western blots we used the Bio-Rad Criterion 15% pre-cast Tris-HCl gels. Primary antibodies used were 1/1000 of the mouse monoclonal anti-human IL-1β (R&D Systems, Cat. # MAB201) and 1/10000 of the mouse monoclonal anti-β-Actin (Sigma, Cat. # A5316).

HLAC CD4 T-cells = assay: HLAC cells overlaid on virus-producing 293T-cells, CD4 T-cell depletion; conditions: 24 hours co-culture
Procedure: HLACs were infected with viruses derived from the indicated HIV proviral clones in the presence of the indicated concentrations of AZT or in the absence of drugs. Six days after infection the amount of p24^gag in the medium was determined by FLAQ assay. The amount of p24^gag in the medium after infection wash (day 0) was defined as 0%. […] Viral incorporation of endogenous A3G was measured by immunoblot analysis of purified NL4-3 and Δvif NL4-3 virions harvested from 1 ml of supernatant from infected HLACs. Doses reflect 1:10 dilutions. […] Resting or activated CFSE-labeled cells were co-cultured with cells infected with WT or Δvif NL4-3 in the presence or absence of the following drugs, AZT (5 μM), AMD3100 (250 nM), the NNRTIs Efavirenz (100 nM), and Nevirapine (1 μM), or the integration inhibitors Raltegravir (30 μM) and 118-D-24 (60 μM). Data are representative of four independent experiments performed with cells from four different donors. (E) A method to assess indirect killing in HLAC with non-infectious HIV-1 clones. Fresh human tonsil is processed into HLAC and cells are cultured in suspension. At the same time 293T-cells are transfected with 1 μg HIV-1 DNA in a 24-well plate. After 12 hours, 293T-cells are washed and overlayed with 3×10^6 HLAC cells in RPMI in the presence of the indicated drugs. Virus-producing 293T-cells directly interact with target overlaying HLAC cells. After 24 hours, the HLAC suspensions are collected from wells and analyzed by flow cytometry. […] HLAC were cultured with the indicated drugs 3 hours before co-culture with 293T-cells. Percentages are normalized to the number of viable CD4 T-cells in HLAC overlaying non-transfected 293T-cells in the presence of AZT, as depicted by (*). Error bars represent standard error of the mean of three experiments performed using cells from three different HLAC donors.

Compound	indirect killing of CFSE-labeled CD4 T-cells (CFSE-labeled CD4 T-cells; WEAU 16-8 (R5/X4)-infected effector cells)	AZT-induced killing of activated CFSE-labeled cells (CFSE-labeled CD4 T-cells; activated target cells in the presence of AZT)	maturation and release of bioactive 17 kDa IL-1β after NL4-3 infection (IL-1β)	loss of HLAC CD4 T-cells over NL4-3-transfected 293T-cells (HLAC CD4 T-cells)	depletion of activated CFSE-labeled CD4 T-cells (CFSE-labeled CD4 T-cells; AZT-resistant HIV-1 clones, AZT 0.5 μM)	indirect killing (loss) of resting CFSE-labeled CD4 T-cells (CFSE-labeled CD4 T-cells)	depletion of activated CFSE-labeled CD4 T-cells (CFSE-labeled CD4 T-cells; PHA and IL-2 activated target cells, NL4-3 effectors)	indirect killing of CFSE-labeled CD4 T-cells (CFSE-labeled CD4 T-cells; GIA-SKY (T20-dependent)-infected effector cells, 1 μg/ml T20)	indirect killing of CFSE-labeled CD4 T-cells (CFSE-labeled CD4 T-cells; SIM (T20-resistant)-infected effector cells)
c1cc(CN2CCCNCCNCCCNCC2)ccc1CN1CCCNCCNCCCNCC1 [AMD3100]	prevented indirect killing	prevented the AZT-induced killing	completely prevented; also recorded: blocked	completely blocked					
Cc1cn([C@H]2C[C@H](N=[N+]=[N-])[C@@H](CO)O2)c(=O)[nH]c1=O [AZT]			similarly resulted in maturation and release of the bioactive 17 kDa IL-1β; also recorded: also resulted in release of bioactive 17-kDa IL-1β	occurred both in the presence and absence of AZT	did not deplete	robust	extensively depleted in cultures containing AZT		
O=C1Nc2ccc(Cl)cc2[C@@](C#CC2CC2)(C(F)(F)F)O1 [efavirenz]			completely prevented; also recorded: blocked	completely blocked		blocked indirect killing of resting CD4 T-cells as efficiently as AMD3100			
enfuvirtide						greatly inhibited indirect killing		Indirect killing was observed	did not inhibit indirect killing
